US10610501B2, “Methods and materials for reducing ischemia-reperfusion injury” (The University of Pécs (Pécsi Tudományegyetem), priority 2014, dated 2020)

Key:
Assay type in all cases: in vivo, rat
[1] = system: Wistar albino rats, ischemia-reperfusion; assay: Malondialdehyde (MDA) levels in whole blood after ischemia-reperfusion (infrarenal aorta occlusion)
Procedure: (§1) The rats were divided randomly into four groups. The first group was a group of operated rats that underwent ischemia followed by an hour-long reperfusion without being treated with ABA (operated untreated control). The other three groups included operated rats that underwent ischemia followed by an hour-long reperfusion with an ABA treatment (intravenously; final concentration of 100 μM) either 20 minutes, 40 minutes, or 60 minutes before reperfusion. Upon completion of the one-hour reperfusion, the rats were anesthetized with intraperitoneal injection of ketamine (40 mg/kg) and diazepam (5 mg/kg) and evaluated.
(§2) Rats were randomly divided into five groups. The first group was a group of operated rats that underwent ischemia followed by an hour-long reperfusion without being treated with ABA (operated untreated control). […] Upon completion of the one-hour reperfusion, the rats were anesthetized with intraperitoneal injection of ketamine (40 mg/kg) and diazepam (5 mg/kg) and evaluated.
(§3) In another dosage experiment, rats were randomly divided into five groups. […] Upon completion of the one-hour reperfusion, the rats were anesthetized with intraperitoneal injection of ketamine (40 mg/kg) and diazepam (5 mg/kg) and evaluated.
(§4) Following the anesthesia, an abdominal opening technique was performed by a midline laparotomy incision. […] Right after the one-hour reperfusion treatment period, peripheral blood samples were collected and evaluated.
(§5) Malondialdehyde (MDA) levels were determined in anti-coagulated whole blood using a colorimetric assay as described elsewhere (Ohakawa et al., Anal. Biochem., 95:351-8 (1979)). Reduced glutathione (GSH) levels, as opposed to oxidized GSH, were measured in anti-coagulated whole blood using a colorimetric assay as described elsewhere (Sedlak and Lindsay, Anal. Biochem., 25:192-205 (1968)). Superoxide dismutase (SOD) enzyme activity was measured in washed red blood cells using a colorimetric assay as described elsewhere (Misra and Fridovich, J. Biol. Chem., 247:3170-3175 (1972)). […]

[2] = system: Wistar albino rats, ischemia-reperfusion; assay: Reduced glutathione (GSH) levels in whole blood after ischemia-reperfusion
Procedure: as §1, §2, §3, §4, §5

[3] = system: Superoxide dismutase (SOD); assay: Superoxide dismutase (SOD) enzyme activity in washed red blood cells after ischemia-reperfusion
Procedure: as §1, §2, §3, §4, §5

[4] = system: Wistar albino rats, ischemia-reperfusion; assay: Total thiol groups (SH) in whole blood after ischemia-reperfusion; conditions: 10, 50, 100 and 500 μM, 40 minutes before reperfusion; FIG. 4
Procedure: (§6) In another dosage experiment, rats were randomly divided into five groups. The first group was a group of operated rats that underwent ischemia followed by an hour-long reperfusion without being treated with ABA (operated untreated control). The other four groups included operated rats that underwent ischemia followed by an hour-long reperfusion with an intravenous ABA treatment 40 minutes before reperfusion at a final concentration of either 10 μM, 50 μM, 100 μM, or 500 μM of ABA. Upon completion of the one-hour reperfusion, the rats were anesthetized with intraperitoneal injection of ketamine (40 mg/kg) and diazepam (5 mg/kg) and evaluated.
Following the anesthesia, an abdominal opening technique was performed by a midline laparotomy incision. See, FIGS. 1A-F. After repositioning the intestines, the aorta came into sight and was carefully isolated. […] Right after the one-hour reperfusion treatment period, peripheral blood samples were collected and evaluated.
Malondialdehyde (MDA) levels were determined in anti-coagulated whole blood using a colorimetric assay as described elsewhere (Ohakawa et al., Anal. Biochem., 95:351-8 (1979)). Reduced glutathione (GSH) levels, as opposed to oxidized GSH, were measured in anti-coagulated whole blood using a colorimetric assay as described elsewhere (Sedlak and Lindsay, Anal. Biochem., 25:192-205 (1968)). […]

SOD mRNA = SOD mRNA expression in renal tissue, semi-quantitative RT-PCR; conditions: increasing amount of ABA (10-500 μM) injected 40 minutes before reperfusion, FIG. 5
Procedure: as §6
(§7) Following the anesthesia, an abdominal opening technique was performed by a midline laparotomy incision. See, FIGS. 1A-F. After repositioning the intestines, the aorta came into sight and was carefully isolated. After the isolation process, the aorta was occluded for one hour (ischemic period). The clamp was released at the end of the ischemic period to start the reperfusion for one hour. Right after the one-hour reperfusion treatment period, peripheral blood samples were collected and evaluated.
(§8) Total RNA was extracted from the renal tissue samples with TRI reagent (Sigma-Aldrich) according to the manufacturer's instructions. […]

PPAR-γ mRNA = PPAR-γ mRNA expression in renal tissue, semi-quantitative RT-PCR; conditions: ABA 40 minutes before reperfusion, FIG. 6
Procedure: as §6, §7, §8

skeletal muscle = assay: Histological analysis of skeletal muscle (m. tensor fasciae latae) after ischemia-reperfusion; conditions: 100 μM i.v. at 20th minute of 1 h ischemia, 1 h reperfusion; versus ischemic reperfused operated controls; FIG. 7C
Procedure: Wistar albino rats (250-280 g) were sham operated (control without ischemia-reperfusion treatment), subjected to ischemia followed by reperfusion (ischemia-reperfusion control), or subjected to ischemia followed by reperfusion with ABA being injected intravenously at a final concentration of 100 μM at the 20th minute of the one hour long ischemic period, which was followed by a one-hour reperfusion. After the one-hour reperfusion periods, tissue samples were obtained from the hind limb (m. tensor fasciae latae) of the rats and fixed in 10% buffered formaldehyde prior to being processed in a paraffin-embedded block. Four-micrometer-thick sections were cut and stained with hematoxylin and eosin.

[5] = system: Wistar albino rats, ischemia-reperfusion; assay: Inhibition of oxidative stress during the ischemia-reperfusion process, stress markers taken together
Procedure: as §6, with “Rats were” for “In another dosage experiment, rats were”, “treatment 20” for “treatment 40”
as §3, §4
Malondialdehyde (MDA) levels were determined in anti-coagulated whole blood using a colorimetric assay as described elsewhere (Ohakawa et al., Anal. Biochem., 95:351-8 (1979)). […]

Structure (SMILES): CC1=CC(=O)CC(C)(C)[C@@]1(O)/C=C/C(C)=C\C(=O)O [ABA, (2Z,4E)-5-[(1S)-1-hydroxy-2,6,6-trimethyl-4-oxocyclohex-2-en-1-yl]-3-methylpenta-2,4-dienoic acid]
- level of MDA ([1]; 100 μM final concentration, superior mesenteric vein, 0, 20, 40 and 60 minutes before reperfusion, blood after 1 h ischemia and 1 h reperfusion, FIG. 2): efficiently diminished the level of MDA at all time-points tested
- level of MDA ([1]; 10, 50, 100 and 500 μM final concentration, 20 minutes before reperfusion, FIG. 3): efficiently diminished the level of MDA
- level of MDA ([1]; 100 and 500 μM final concentration, 40 minutes before reperfusion, FIG. 4): efficiently diminished the level of MDA
- reduced GSH levels ([2]; 100 μM final concentration, administered 40 or 60 minutes prior to reperfusion, FIG. 2): increases in reduced GSH levels
- reduced GSH levels ([2]; 50, 100 and 500 μM, 20 minutes before reperfusion, FIG. 3): decrease in the levels of reduced GSH levels
- reduced GSH levels ([2]; 50, 100 and 500 μM, 40 minutes before reperfusion, FIG. 4): increase in the levels of reduced GSH levels
- SOD activity ([3]; 100 μM final concentration, all time-points tested (0, 20, 40, 60 minutes before reperfusion), FIG. 2): increases in SOD activity at all time-points tested
- SOD activity ([3]; 10, 100 and 500 μM, 40 minutes before reperfusion, FIG. 4): increase in SOD activity
- SOD activity ([3]; 100 and 500 μM, 20 minutes before reperfusion, FIG. 3): increase in SOD activity
- levels of SH (total thiol groups) [4]: increase in the levels of SH
- SOD mRNA expression (SOD mRNA): increased levels of SOD mRNA expression
- expression of PPAR-γ mRNA (PPAR-γ mRNA): increased expression of PPAR-γ mRNA
- extracellular oedema (fiber separation) (skeletal muscle): minimal extracellular oedema
- intercellular vacuolization (skeletal muscle): near complete absence of intercellular vacuolization
- tissue and cell architecture (skeletal muscle): noticeable helped to preserve of the normal tissue and cell architecture
- concentration as low as which ABA inhibits oxidative stress ([5]; 20 minutes before reperfusion): 10 µM
- levels as low as which ABA inhibits oxidative stress ([5]; 40 minutes before reperfusion): 10 to 50 µM
